Source: patent publication US20040028646A1, “Particle formation” (priority 2002, published 2004)

Test system: lysozyme
Assay: Retention of original lysozyme activity after Nektar SCF processing
Assay type: biochemical
Settings: after Nektar SCF processing at 0° C., 100 bar

Substance	Retained original (pre-Nektar SCF) activity
Experiment 8.1: unconjugated lysozyme subjected to Nektar SCF processing from 20 mg/ml aqueous solution	105%
Experiment 8.2: conjugate of the protein lysozyme with linear mPEG of 5 kDaltons	108%
